Data reported in PubChem BioAssay (NCI).
“And” between values parts separate entries of the source, which are not always exact repeats. Equal values may be shown once.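 Briefly, cells in 96-well plates were exposed to five compound concentrations for 48 h, and endpoints were estimated by linear interpolation. At the GI50, growth is halved. TGI denotes the concentration required for complete inhibition of growth.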

The compounds below were run on MDA-MB-468 breast (assay: NCI anticancer screen, dose series, 48 h).

Compound	GI50	TGI
CCCCCCN1CCN(Cc2ccc(N(CC)CC)cc2)C(=O)C1=O	1590 nM	16.1 µM
Cc1ccc(C[P+](c2ccccc2)(c2ccccc2)c2ccccc2)cc1	172 nM	1.19 µM
Nc1nc(-c2cccc([N+](=O)[O-])c2)c(N=Nc2ccc([N+](=O)[O-])cc2Cl)s1	131 nM	0.711 µM
Cc1ccc(-c2cc3nc(C(Cl)Cl)nc(-c4ccco4)n3n2)cc1	566 nM	3.05 µM
O=[N+]([O-])/C=C/c1ccc([N+](=O)[O-])cc1	1510 nM	3.3 µM
Cc1cc(NC(=O)NC(=O)c2ccccc2NC(=O)CN)ccc1Oc1ncc(Br)cn1	65 nM	36.8 µM
CCCCCCCCCCCCCCCCn1cc[n+](Cc2ccccc2)c1C	305 nM	0.84 µM
COc1cc(-c2n/c(=C\c3c(O)[nH]c4ccccc34)cc3c2=Nc2ccccc2-3)cc(OC)c1OC	2570 nM	7.74 µM
COc1cc(OC)cc(-c2cncn2-c2ccc(-c3nc4cc(OC)cc(OC)c4s3)cc2)c1	3170 nM	> 100 µM
COC1[C@@H]2C[C@H]3C(C)(C)O[C@@](C/C=C(/C)C(=O)O)(C2=O)[C@]32Oc3c(CC=C(C)C)c4c(c(O)c3C(=O)[C@H]12)C=CC(C)(C)O4 (stereo not given in full)	7460 nM	25 µM
C=C(C)[C@@H]1CC[C@]2(C(=O)NCCNCCNCCN)CC[C@]3(C)[C@H](CC[C@@H]4[C@@]5(C)CCC(=O)C(C)(C)[C@@H]5CC[C@]43C)[C@@H]12	8090 nM	16.1 µM
CCC(=O)c1ccc2c(c1)N(CCCN1CCN(CCO)CC1)c1ccccc1S2	10500 nM	23.5 µM
Cc1ccccc1C(C(=O)NC1CCCCC1)N(C(=O)Cn1ccnc1C)c1cccc(F)c1 (stereo not given)	> 100000 nM	> 100 µM
CC(=O)NC1=CC(=O)c2cc(C)cc(O)c2C1=O	1870 nM	5.98 µM
COc1ccc(/C=C\c2cc(OC)c(OC)c(OC)c2)cc1OCC(=O)Nc1nc2ccc(OC(F)(F)F)cc2s1	2300 nM	6.88 µM
COc1ccc(-c2nc3sc4c(c3c(=O)[nH]2)CCCC4)c2ccccc12	1420 nM	5.55 µM and 8.96 µM
O=C(Nc1cccc(-n2ccc3c(NC(=O)c4ccccc4)nccc32)c1)c1cc(N2CCOCC2)cc(C(F)(F)F)c1	48.4 nM	1.42 µM
COc1ccc2[nH]cc(-c3nc(-c4c[nH]c5ccncc45)cs3)c2c1	1780 nM	3.67 µM
Nc1ccc(-n2c(=O)oc3ccc(Cl)cc3c2=O)c(Cl)c1	90.3 nM	0.383 µM
CCN1CCC(CC(=O)Nc2n[nH]c3nc(-c4cccs4)c(Br)cc23)CC1	4530 nM	10.8 µM

Compound	GI50	TGI
N=C(N)c1ccc(-c2ccc(-c3ccc(F)cc3)o2)o1	1360 nM	3 µM
Cc1ccc(Oc2nc3ccccc3cc2-c2nnc(Cn3c(COc4ccccc4)nc4ccccc43)o2)cc1	3950 nM	18.3 µM
CCCn1cnc2c(c1=N)C(c1ccc(OC)cc1)c1sc3c(C)cccc3c1O2 (stereo not given)	360 nM	13.4 µM
COc1cc2ncn(-c3cc(OCc4ccccc4S(C)(=O)=O)c(C#N)s3)c2cc1OC	> 25000 nM	> 25 µM
COc1ccc(-c2ccccc2)cc1-c1c(Nc2cc(Cl)cc(Cl)c2O)c(=O)c1=O	1130 nM	3.91 µM
COc1ccc(-c2cc(-c3nnc(SCC(=O)Nc4ccc(C(C)=O)cc4)o3)c3ccccc3n2)cc1	> 100000 nM	> 100 µM
Cc1cc(C)c2c(N)c3cccc(C)c3nc2n1	1280 nM	3.37 µM
Oc1cc(Cl)ccc1Cc1ccc(Cl)cc1O	11700 nM	35.5 µM
COc1ccc(-c2csc3c2-n2cccc2C3=O)cc1O	397 nM	2.43 µM
C[C@@H]1COC(Nc2ccc3ncnc(Nc4ccc(OCc5nccs5)c(Cl)c4)c3c2)=N1	181 nM and 39.6 nM	1.59 µM and 0.294 µM
O=C1OCC2=C1C(c1cccc(C(F)(F)F)c1)c1cc3c(cc1N2CCO)CCC3 (stereo not given)	127 nM	1.2 µM
Cc1cc2nc3c4cccc(O)c4n(CCN(C)C)c3nc2cc1C	2560 nM	8.19 µM
O=C(/C=C\c1ccc2ccccc2n1)c1cc(Cl)ccc1O	5100 nM	19.7 µM
CC(C)CCC[C@@H](C)[C@H]1CCC2C3=CCC4C(=O)C=CC(=O)C4C3CC[C@@]21C (stereo not given in full)	215 nM	0.57 µM
O=[N+]([O-])c1cccc(-c2cc(-c3cc(Br)ccc3O)[nH]n2)c1	1470 nM	21.1 µM
CNCCOC(=O)/C=C1/CCC2C(C(O)CC3C(C)(C(=O)OC)CCCC23C)C1C (stereo not given)	37.7 nM	0.148 µM
Cc1ccc(F)cc1NC(=O)c1cc(Cl)ccc1Nc1ccccc1	> 100000 nM	> 100 µM
N/C(=N\c1nc2ccccc2s1)NC(=O)Nc1cccc2ccccc12	372 nM	22.7 µM
Oc1ccc(CN(Cc2ccc(C(F)(F)F)cc2)Cc2ccc(O)c3ncccc23)c2cccnc12	23.6 nM	2.23 µM
COC(=O)[C@@H]1CCCN1C(=O)[C@H]1CCCN1C(=O)[C@@H](Cc1c[nH]c2ccccc12)NC(=S)Nc1cc(C(F)(F)F)cc(C(F)(F)F)c1	2150 nM	6.94 µM
